Earlier results, collected in US20200261395A1, “METHOD FOR TREATMENT OF ROSACEA” (Sol-Gel Technologies Ltd., priority 2019, published 2020).

Tested on: rosacea lesions
Conditions: BPO as sole active agent

## O=C(OOC(=O)c1ccccc1)c1ccccc1 [BPO, Benzoyl peroxide]
  Response of rosacea lesions: unresponsive
